What was measured:
[1] = Body and epididymal fat weights; type: in vivo; conditions: HFD mice, FIG. 4B
Description: (§1) Accordingly, 6 w-old male mice were fed with either 13% LFD or 60% HFD for indicated period of time from 4 d to 24 w as described in Example 1. αGalCer (Toronto Research Chemicals) was dissolved in pyridine at 2.5 mg/ml and then diluted 1:250 in PBS to prepare 10 μg/ml working solution prior to use. In all experiments, mice were injected i.p. with 200 μl αGalCer (100 ng αGalCer per g body weight). The vehicle control group was injected with PBS with 0.4% pyridine. The dosage and frequency of αGalCer injection were the same for all the gain-of-function experiments unless otherwise indicated. HFD mice were injected with αGalCer or vehicle at day 0 and day 2. GTT was conducted on day 4, followed by sacrificing the mice on (day 5) to harvest adipose tissues (or other tissues as indicated), which were processed for immune cell analysis, frozen for Q-PCR or Western blot, or fixed for H&E staining Flow cytometric analyses of NKT levels and other immune cells were performed on day 5.

gene expression in WAT = assay: Microarray analysis of WAT; type: in vivo, mice; conditions: 4 d HFD
Description: Microarray analyses of WAT were performed as described (39) with four groups of mice (n=3-4 per cohort) as follows: WT+veh, WT+αGalCer, CD1d^−/−+veh and CD1d^−/−+αGalCer. All mice were on 4 d HFD feeding with two αGalCer injections at day 0 and day 2. […] Data have been deposited into the GEO datasets (GSE36032). The array data of IL-4-treated mouse BMDM for 10 days were obtained from the Gene Expression Omnibus (GEO) database with accession number GSE25088 (Szanto A. et al. (2010)).

[2] = tested on: M2 genes in adipose tissue; assay: Q-PCR analysis of M1 and M2 genes in white adipose tissue; type: in vivo, mice
Description: RNA extraction from cells and murine tissues, and Q-PCR were carried out as previously described (36) using Trizol (Invitrogen) for liver, and Trizol plus QIAeasy kit (Qiagen) for adipose tissues with DNase digestion (Roche). Q-PCR data collected on the Roche LightCycler 480 were normalized to ribosomal 132 gene in the corresponding sample.
as §1

[3] = Fasting insulin levels (ELISA); type: in vivo; conditions: 8 w HFD mice, FIG. 6D
Description: Blood was collected in animals upon 6 h fasting during the day. Circulating insulin levels were measured using the kit from Millipore per supplier's protocols.
(§2) For GTT, mice were fasted for 16-18 h followed by injection of glucose (Sigma) at 1 g/kg body weight. Blood glucose was monitored using One-Touch Ultra Glucometer. Fasting insulin levels were measured following a 6 h fast.

[4] = Glucose tolerance test (GTT) after αGalCer injection; type: in vivo, mice
Description: as §1, §2

[5] = one injection of αGalCer, Ohmura et al. (2010); cited from earlier work
[6] = literature (Berzins 2011; Giaccone 2002); cited from earlier work
[7] = tested on: NKT cells in adipose tissue; assay: Flow cytometric analysis of immune cells in adipose tissue after αGalCer challenge; type: in vivo, mice
Description: Single-cell suspensions of stromal vascular cells (SVC) from adipose tissue were prepared as described (Xia et al. (2011)). SVCs from two fat pads per mouse were diluted in 120-200 μl PBS, from which one tenth was used for the subsequent staining Following incubation with anti-CD16/CD32 antibody to block Fc receptors, 1×10^6 cells were incubated with 20 μl of antibodies diluted at optimal concentrations for 20 min at 4° C. Cells were washed three times with PBS and then resuspended in 200 μl PBS for analysis using the FACSCalibur Flow Cytometer (BD Biosciences). NKT cells were defined as CD45^+αGalCer-loaded CD1d-tetramer^+CD3/TCRβ^+ lymphocytes; CD8^+ T cells were defined as CD8^+CD45^+ cells; macrophages were as CD45^+F4/80^+CD11b^+ cells. During the run, samples were completely run out and the total number of CD45^+ lymphocytes or immune cells were gated and counted. The total cell number for various immune cells per g adipose tissue was calculated as (% cells in total CD45^+ lymphocytes or immune cells×total CD45^+ lymphocytes or immune cells)/g adipose tissue.
For the Brdu staining, mice were injected (i.p.) with αGalCer (100 ng per g body weight) at day 0, and then with BrdU (Sigma, 0.6 mg/10 g body weight) at 36 h and 12 h prior to sacrifice at day 3. SVC of adipose tissues were purified, labeled with cell surface antibodies and then fixed in cold 70% ethanol at −20° C. overnight. The rest of steps were performed as the regular flow cytometric analysis using BrdU-FITC antibody and DNA dye 7-AAD (Anaspec).
as §1

Arg1 protein, p-Y STAT6 = assay: Western blot of Arg1 and p-Y STAT6 in WAT and liver; type: in vivo, mice
Description: Tissues or cells were lysed in Tris-based lysis buffer containing 1% Triton X-100. Normally, 15-30 μg of total lysates unless otherwise indicated were used in a mini SDS-PAGE as described (Sha et al. (2009) Cell Metab 9, 556-564). Antibodies specific for (p-Tyr641) STATE and (p-Tyr705) STAT3 (Cell signaling) and Arginase 1 (N-20, Santa Cruz sc-18351) were used at 1:500-2000 and for the loading control HSP90 (Santa Cruz) was used at 1:6000. The secondary antibody goat anti-rabbit IgG HRP (1:10,000) was from Bio-Rad. Quantitation of band density was carried out using the ImageLab software of the Bio-Rad ChemiDoc XRS+system following exposure.
as §1

[8] = tested on: cells surrounding adipocytes; assay: H&E histology of adipose tissue; type: in vivo, mice; conditions: WT, 4 d HFD, FIG. 3D; abolished by CD1d deficiency
Description: Adipose tissues were fixed in 4% formaldehyde, embedded in paraffin and sectioned by the Cornell Histology Core Facility. Pictures were taken using the Axiovert 200M microscope (Zeiss).
as §1

[9] = tested on: adipose-resident NKT cells; assay: In vivo effectiveness as activator of adipose-resident NKT cells

In the case of `CCCCCCCCCCCCCCCCCCCCCCCCCC(=O)N[C@@H](CO[C@H]1O[C@H](CO)[C@H](O)[C@H](O)[C@H]1O)[C@H](O)[C@H](O)CCCCCCCCCCCCCC` [αGalCer, (2S,3S,4R)-1-O-(alpha-D-galactosyl)-N-hexacosanoyl-2-amino-1,3,4-octadecanetriol], the “effect on body and epididymal fat weights” value [1] is reported as “no discernible effect”, the “number of genes whose expression was significantly increased by more than 2-fold in WAT” value (gene expression in WAT; WT vs CD1d-/-, NKT-dependent, FIG. 9A) is reported as 1,556 genes and the “Arg1 expression, αGalCer vs. veh in WT WAT” value (gene expression in WAT; microarray, FIG. 9B) is reported as 32 fold. The “Chi313 expression, αGalCer vs. veh in WT WAT” value (gene expression in WAT; microarray, FIG. 9B) was 138 fold, the “pdcd1Ig2 expression, αGalCer vs. veh in WT WAT” value (gene expression in WAT; microarray, FIG. 9B) was 53 fold and the “Il4 mRNA levels in WAT” value ([2]; 4 d HFD, NKT-dependent, FIG. 9F) was “highly induced”. The “αGalCer-mediated induction of M2 genes in WAT of myeloid cell-specific PPARγ or PPARβ/δ-deficient animals” value ([2]; 4 day HFD, vs WT control littermates, FIG. 12C) was “not affected”, the “αGalCer-mediated induction of M2 genes Arg1, Chi3l3, Pdcd1Ig2 and Arg1 protein in WAT with loss of IL-4” value ([2]; IL-4-/- mice, 4 d HFD, FIG. 11D-F) was “markedly attenuated” and the “induction of a subset of M2 genes (Arg1, Chi313, Pdcd1Ig2) in adipose tissue” value ([2]; all three HFD models, NKT-dependent, FIGS. 7A-B and 8A) was 50-100 fold. The “effect on fasting insulin levels” value [3] was “no effect”, the “effect on glucose tolerance in CD1d-/- mice” value ([4]; CD1d-/- mice, 4 d HFD, FIG. 6E) was “no effect” and the “αGalCer effect in glucose tolerance in IL-4-/- mice” value ([4]; IL-4-/- mice, 4 d HFD, FIG. 11B-C) was “completely abolished”. For the same compound, the systemic glucose tolerance ([4]; WT mice at all stages of HFD (4 d, 8 w, 24 w), FIGS. 6A-C) was “improved systemic glucose tolerance”, the “effect on glucose tolerance in mice on LFD” value ([4]; WT mice on LFD, FIG. 6F) was “no effect on glucose tolerance” and the “effect on glucose tolerance in HFD animals” value [5] was “mild effect”. For the same compound, the tolerability in humans [6] was “well tolerated”, the toxicity [6] was “not toxic” and the “macrophages and CD8+ T cells in adipose tissue” value ([7]; 4 d HFD mice, FIG. 5A) was “milder increases”. For the same compound, the “increase in percentage of NKT cells in adipose tissue” value ([7]; 4 d HFD mice, αGalCer 100 ng per g body weight i.p. day 0 and day 2, FIG. 3C) was > 4 fold, the “increase in total cell number of NKT cells in adipose tissue” value ([7]; 4 d HFD mice, αGalCer i.p. day 0 and day 2, FIG. 5A) was 70 fold and the “reduction of total lymphocytes in WAT of IL-4-/- mice relative to WT cohorts after αGalCer” value ([7]; 4 d HFD, FIG. 12B) was “approximately 40%”. For the same compound, the “Arg1 protein in CD1d-/- WAT” value (Arg1 protein, p-Y STAT6; CD1d-/- mice, FIG. 7C-D) was “abolished”, the “tyrosine phosphorylation (p-Y) of STAT6 in WAT following αGalCer with loss of IL-4” value (Arg1 protein, p-Y STAT6; IL-4-/- mice, 4 d HFD, FIG. 11E-F) was “completely abolished” and the “Arg1 protein in WT WAT” value (Arg1 protein, p-Y STAT6; WT mice, HFD, FIG. 7C-D) was “significantly induced”. The “hepatic STAT6 activation” value (Arg1 protein, p-Y STAT6; liver of WT mice, 4 d HFD, FIG. 11G) was “not activated”, the “Arg1 protein induction in the liver” value (Arg1 protein, p-Y STAT6; liver, 4 d or 8 w HFD, FIG. 8B) was “not observed in the liver” and the “number of cells surrounding adipocytes in WAT sections” value [8] was “significant increase”.
With `CCCCCCCCCCCCCCCCCCCCCCCC(=O)NC(COC1O[C@H](CO)[C@H](O)[C@H](O)[C@H]1O)C(O)C(O)CCCCCC` (stereo partly shown) [OCH, tetracosanoic acid 1-galactopyranosyloxy-3,4-dihydroxydec-2-yl amide] the effectiveness in vivo [9] was “not effective in vivo”.

— US9623083B2, “Method to screen for an activator of adipose-resident NK cells” (Cornell University, priority 2011, dated 2017)
